Target: wild-type human cardiac sodium channel, hNav1.5 (late sodium current) in HEK293 cells (Homo sapiens, UniProt Q14524)
Test: Late INa screening assay (automated whole-cell patch clamp, PatchXpress)
Type: cell-based
Conditions: late INa generated with 10 μM Tefluthrin (or 50 nM ATX II), HEK293 hNav1.5; for inhibition at 1 µM: HEK293, compound at 1 μM, read-out: Late INa 1 μM (percent block of late INa)
Procedure, shortened: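 Percent block was derived from mean current 225–250 ms into a 250 ms depolarisation to −20 mV (holding −120 mV, every 10 s), normalised to the current left in Na-free solution. Whole-cell recordings came from HEK293 cells stably expressing α-subunit-only hNav1.5, at 24–27 °C. Late current was enhanced with 10 μM tefluthrin or 50 nM ATX II, then compound (typically 10 μM) was added three times over 7–8 min.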

wild-type human cardiac sodium channel, hNav1.5 (late sodium current) in HEK293 cells, sequence (Q14524 whole entry): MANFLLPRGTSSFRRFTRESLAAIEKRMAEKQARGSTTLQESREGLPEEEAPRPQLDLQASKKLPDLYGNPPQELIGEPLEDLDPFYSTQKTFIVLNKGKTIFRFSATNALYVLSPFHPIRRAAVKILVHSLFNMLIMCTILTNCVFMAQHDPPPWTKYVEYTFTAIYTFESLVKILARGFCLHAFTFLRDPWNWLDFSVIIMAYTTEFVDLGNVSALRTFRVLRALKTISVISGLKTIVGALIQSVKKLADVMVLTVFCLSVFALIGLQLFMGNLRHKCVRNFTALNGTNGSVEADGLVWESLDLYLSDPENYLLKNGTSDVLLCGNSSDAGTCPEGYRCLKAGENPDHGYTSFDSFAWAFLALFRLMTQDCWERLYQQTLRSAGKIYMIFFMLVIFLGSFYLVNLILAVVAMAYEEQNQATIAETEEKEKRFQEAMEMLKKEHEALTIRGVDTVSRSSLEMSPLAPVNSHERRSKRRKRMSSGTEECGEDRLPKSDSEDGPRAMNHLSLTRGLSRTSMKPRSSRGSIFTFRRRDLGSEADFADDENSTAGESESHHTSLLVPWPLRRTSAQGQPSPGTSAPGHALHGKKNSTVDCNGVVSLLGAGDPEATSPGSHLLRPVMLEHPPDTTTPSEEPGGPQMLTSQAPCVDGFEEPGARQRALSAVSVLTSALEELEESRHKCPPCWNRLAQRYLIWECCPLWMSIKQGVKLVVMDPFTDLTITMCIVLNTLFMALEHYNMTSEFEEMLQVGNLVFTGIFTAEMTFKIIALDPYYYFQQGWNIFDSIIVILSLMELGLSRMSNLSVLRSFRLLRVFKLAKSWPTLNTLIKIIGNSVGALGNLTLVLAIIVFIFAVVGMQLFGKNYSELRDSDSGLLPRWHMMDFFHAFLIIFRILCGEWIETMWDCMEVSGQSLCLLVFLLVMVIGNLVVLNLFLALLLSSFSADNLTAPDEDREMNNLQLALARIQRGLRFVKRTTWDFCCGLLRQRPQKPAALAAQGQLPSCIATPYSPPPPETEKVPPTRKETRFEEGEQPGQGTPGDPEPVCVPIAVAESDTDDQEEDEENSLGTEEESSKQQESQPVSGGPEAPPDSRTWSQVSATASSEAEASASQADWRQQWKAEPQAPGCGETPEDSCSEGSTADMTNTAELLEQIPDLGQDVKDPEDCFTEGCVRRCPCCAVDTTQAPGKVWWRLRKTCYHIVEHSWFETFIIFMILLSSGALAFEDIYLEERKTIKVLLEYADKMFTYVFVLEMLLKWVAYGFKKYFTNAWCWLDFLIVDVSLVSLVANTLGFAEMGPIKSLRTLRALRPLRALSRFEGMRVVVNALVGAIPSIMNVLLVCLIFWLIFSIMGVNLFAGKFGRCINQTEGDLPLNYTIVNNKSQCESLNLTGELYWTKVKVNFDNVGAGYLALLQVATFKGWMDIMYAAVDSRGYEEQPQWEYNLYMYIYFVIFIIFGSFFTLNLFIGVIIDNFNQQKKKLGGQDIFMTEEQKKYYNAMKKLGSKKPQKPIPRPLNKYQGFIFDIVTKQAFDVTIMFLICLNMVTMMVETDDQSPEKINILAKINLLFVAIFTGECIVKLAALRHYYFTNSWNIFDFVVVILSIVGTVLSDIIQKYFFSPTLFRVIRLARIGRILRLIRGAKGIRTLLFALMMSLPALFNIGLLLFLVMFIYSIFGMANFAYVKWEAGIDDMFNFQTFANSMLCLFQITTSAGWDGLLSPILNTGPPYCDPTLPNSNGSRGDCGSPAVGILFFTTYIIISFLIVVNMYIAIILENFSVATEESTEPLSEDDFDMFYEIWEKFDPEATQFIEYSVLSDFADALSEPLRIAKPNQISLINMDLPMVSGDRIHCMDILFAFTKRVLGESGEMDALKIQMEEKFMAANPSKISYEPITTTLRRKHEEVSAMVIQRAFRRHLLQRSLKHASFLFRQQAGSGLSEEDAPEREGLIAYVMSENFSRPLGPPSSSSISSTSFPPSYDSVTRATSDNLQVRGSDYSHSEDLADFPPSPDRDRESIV

SMILES | inhibition at 1 µM [%] | Late INa 1 μM (percent block of late INa) (compound at 1 μM) [%]
Cc1nnc(Cn2nc3ccc(-c4ccc(OC(F)(F)F)cc4)cn3c2=O)o1 [compound 18, 2-((5-methyl-1,3,4-oxadiazol-2-yl)methyl)-6-(4-(trifluoromethoxy)phenyl)-[1,2,4]triazolo[4,3-a]pyridin-3(2H)-one] | 11.5 | –
Cc1oc(-c2ccccc2)nc1Cn1nc2ccc(-c3ccc(OC(F)(F)F)cc3)cn2c1=O [compound 21, 2-((5-methyl-2-phenyloxazol-4-yl)methyl)-6-(4-(trifluoromethoxy)phenyl)-[1,2,4]triazolo[4,3-a]pyridin-3(2H)-one] | 11 | –
Cc1coc(Cn2nc3ccc(-c4ccc(C(F)(F)F)cc4)cn3c2=O)n1 [compound 192, 2-((4-methyloxazol-2-yl)methyl)-6-(4-(trifluoromethyl)phenyl)-[1,2,4]triazolo[4,3-a]pyridin-3(2H)-one] | 34.4 | –
O=c1[nH]nc2ccc(-c3ccc(OC(F)(F)F)cc3)cn12 [compound 200, 6-(4-(trifluoromethoxy)phenyl)-[1,2,4]triazolo[4,3-a]pyridin-3(2H)-one] | 26.5 | –
Cn1nc2ccc(-c3ccc(C(F)(F)F)cc3)cn2c1=O [compound 185, 2-methyl-6-(4-(trifluoromethyl)phenyl)-[1,2,4]triazolo[4,3-a]pyridin-3(2H)-one] | 10.1 | –
Cn1c(CCn2nc3ccc(-c4ccc(OC(F)(F)F)cc4)cn3c2=O)nc2ccccc21 [compound 97, 2-(2-(1-methyl-1H-benzo[d]imidazol-2-yl)ethyl)-6-(4-(trifluoromethoxy)phenyl)-[1,2,4]triazolo[4,3-a]pyridin-3(2H)-one] | 16 | –
Cc1noc(C(C)n2nc3ccc(-c4ccc(OC(F)(F)F)cc4)cn3c2=O)n1 (stereo not drawn) [compound 147, 2-(1-(3-methyl-1,2,4-oxadiazol-5-yl)ethyl)-6-(4-(trifluoromethoxy)phenyl)-[1,2,4]triazolo[4,3-a]pyridin-3(2H)-one] | 13.4 | –
CCOc1ccnc(OCCn2nc3ccc(-c4ccc(OC(F)(F)F)cc4)cn3c2=O)n1 [compound 106, 2-(2-(4-ethoxypyrimidin-2-yloxy)ethyl)-6-(4-(trifluoromethoxy)phenyl)-[1,2,4]triazolo[4,3-a]pyridin-3(2H)-one] | 47.2 | –
CCc1noc(Cn2nc3ccc(-c4ccc(C(F)(F)F)cc4)cn3c2=O)n1 [compound 167, 2-((3-ethyl-1,2,4-oxadiazol-5-yl)methyl)-6-(4-(trifluoromethyl)phenyl)-[1,2,4]triazolo[4,3-a]pyridin-3(2H)-one] | 26.2 | –
O=c1n(CCOc2nccn3cccc23)nc2ccc(-c3ccc(OC(F)(F)F)cc3)cn12 [compound 135, 2-(2-(pyrrolo[1,2-a]pyrazin-1-yloxy)ethyl)-6-(4-(trifluoromethoxy)phenyl)-[1,2,4]triazolo[4,3-a]pyridin-3(2H)-one] | 41.5 | –
COc1ccccc1-c1nc(Cn2nc3ccc(-c4ccc(OC(F)(F)F)cc4)cn3c2=O)no1 [compound 11, 2-((5-(2-methoxyphenyl)-1,2,4-oxadiazol-3-yl)methyl)-6-(4-(trifluoromethoxy)phenyl)-[1,2,4]triazolo[4,3-a]pyridin-3(2H)-one] | 22 | –
Cc1nc(Cn2nc3ccc(-c4ccc(OC(F)(F)F)cc4)cn3c2=O)no1 [compound 3, 2-((5-methyl-1,2,4-oxadiazol-3-yl)methyl)-6-(4-(trifluoromethoxy)phenyl)-[1,2,4]triazolo[4,3-a]pyridin-3(2H)-one] | 29.3 | –
Cc1cc(Cn2nc3ccc(-c4ccc(OC(F)(F)F)cc4)cn3c2=O)no1 [compound 5, 2-((5-methylisoxazol-3-yl)methyl)-6-(4-(trifluoromethoxy)phenyl)-[1,2,4]triazolo[4,3-a]pyridin-3(2H)-one] | 28.3 | –
Cc1coc(Cn2nc3ccc(-c4ccc(OC(F)(F)F)cc4)cn3c2=O)n1 [compound 191, 2-((4-methyloxazol-2-yl)methyl)-6-(4-(trifluoromethoxy)phenyl)-[1,2,4]triazolo[4,3-a]pyridin-3(2H)-one] | 28.9 | –
O=c1n(CCOc2ncc(F)cn2)nc2ccc(-c3ccc(OC(F)(F)F)cc3)cn12 [compound 138, 2-(2-(5-fluoropyrimidin-2-yloxy)ethyl)-6-(4-(trifluoromethoxy)phenyl)-[1,2,4]triazolo[4,3-a]pyridin-3(2H)-one] | 32.4 | –
O=c1n(Cc2noc(C(F)F)n2)nc2ccc(-c3ccc(OC(F)(F)F)cc3)cn12 [compound 154, 2-((5-(difluoromethyl)-1,2,4-oxadiazol-3-yl)methyl)-6-(4-(trifluoromethoxy)phenyl)-[1,2,4]triazolo[4,3-a]pyridin-3(2H)-one] | 21 | –
Cc1noc(Cn2nc3ccc(-c4ccc(Cl)cc4)cn3c2=O)n1 [compound 149, 6-(4-chlorophenyl)-2-((3-methyl-1,2,4-oxadiazol-5-yl)methyl)-[1,2,4]triazolo[4,3-a]pyridin-3(2H)-one] | 26.2 | –

SMILES | inhibition at 1 µM [%] | Late INa 1 μM (percent block of late INa) (compound at 1 μM) [%]
Cc1cc(C)nc(OCCn2nc3ccc(-c4ccc(OC(F)(F)F)cc4)cn3c2=O)n1 [compound 88, 2-(2-(4,6-dimethylpyrimidin-2-yloxy)ethyl)-6-(4-(trifluoromethoxy)phenyl)-[1,2,4]triazolo[4,3-a]pyridin-3(2H)-one] | 20.8 | –
Cc1nccnc1CCn1nc2ccc(-c3ccc(OC(F)(F)F)cc3)cn2c1=O [compound 117, 2-(2-(3-methylpyrazin-2-yl)ethyl)-6-(4-(trifluoromethoxy)phenyl)-[1,2,4]triazolo[4,3-a]pyridin-3(2H)-one] | 18.2 | –
Cc1noc(Cn2nc3ccc(-c4ccc(Oc5ccc(F)cc5)cc4)cn3c2=O)n1 [compound 93, 6-(4-(4-fluorophenoxy)phenyl)-2-((3-methyl-1,2,4-oxadiazol-5-yl)methyl)-[1,2,4]triazolo[4,3-a]pyridin-3(2H)-one] | 71.3 | –
COc1nc(OCCn2nc3ccc(-c4ccc(OC(F)(F)F)cc4)cn3c2=O)ncc1Cl [compound 130, 2-(2-(5-chloro-4-methoxypyrimidin-2-yloxy)ethyl)-6-(4-(trifluoromethoxy)phenyl)-[1,2,4]triazolo[4,3-a]pyridin-3(2H)-one] | 32.4 | –
CCc1noc(Cn2nc3ccc(-c4ccc(OC(F)(F)F)cc4)cn3c2=O)n1 [compound 166, 2-((3-ethyl-1,2,4-oxadiazol-5-yl)methyl)-6-(4-(trifluoromethoxy)phenyl)-[1,2,4]triazolo[4,3-a]pyridin-3(2H)-one] | 24.4 | –
CC1(C)OC[C@H](c2nc(Cn3nc4ccc(-c5ccc(OC(F)(F)F)cc5)cn4c3=O)no2)O1 [compound 158, (R)-2-((5-(2,2-dimethyl-1,3-dioxolan-4-yl)-1,2,4-oxadiazol-3-yl)methyl)-6-(4-(trifluoromethoxy)phenyl)-[1,2,4]triazolo[4,3-a]pyridin-3(2H)-one] | 25.3 | –
O=c1n(CCOc2ccc(F)cc2)nc2ccc(-c3ccc(OC(F)(F)F)cc3)cn12 [compound 55, 2-(2-(4-fluorophenoxy)ethyl)-6-(4-(trifluoromethoxy)phenyl)-[1,2,4]triazolo[4,3-a]pyridin-3(2H)-one] | 24.3 | –
Cc1nc(-c2cccc(Cn3nc4ccc(-c5ccc(OC(F)(F)F)cc5)cn4c3=O)c2)no1 [compound 8, 2-(3-(5-methyl-1,2,4-oxadiazol-3-yl)benzyl)-6-(4-(trifluoromethoxy)phenyl)-[1,2,4]triazolo[4,3-a]pyridin-3(2H)-one] | 16.3 | –
O=c1n(CCN2CCC(F)(F)CC2)nc2ccc(-c3ccc(OC(F)(F)F)cc3)cn12 [compound 50, 2-(2-(4,4-difluoropiperidin-1-yl)ethyl)-6-(4-(trifluoromethoxy)phenyl)-[1,2,4]triazolo[4,3-a]pyridin-3(2H)-one] | 14.2 | –
O=c1n(CCCOc2ccccc2C(F)(F)F)nc2ccc(-c3ccc(OC(F)(F)F)cc3)cn12 [compound 66, 6-(4-(trifluoromethoxy)phenyl)-2-(3-(2-(trifluoromethyl)phenoxy)propyl)-[1,2,4]triazolo[4,3-a]pyridin-3(2H)-one] | 14.7 | –
O=C1C(Oc2ccccc2)CCN1CCn1nc2ccc(-c3ccc(OC(F)(F)F)cc3)cn2c1=O (stereo not drawn) [compound 112, 2-(2-(2-oxo-3-phenoxypyrrolidin-1-yl)ethyl)-6-(4-(trifluoromethoxy)phenyl)-[1,2,4]triazolo[4,3-a]pyridin-3(2H)-one] | 11.1 | –
O=c1n(Cc2nc(Cc3ccccc3)no2)nc2ccc(-c3ccc(OC(F)(F)F)cc3)cn12 [compound 29, 2-((3-benzyl-1,2,4-oxadiazol-5-yl)methyl)-6-(4-(trifluoromethoxy)phenyl)-[1,2,4]triazolo[4,3-a]pyridin-3(2H)-one] | 27.2 | –
N#CCOc1ccnc(OCCn2nc3ccc(-c4ccc(OC(F)(F)F)cc4)cn3c2=O)n1 [compound 160] | – | 24.6907
Cc1cnc(Cn2nc3ccc(-c4ccc(OC(F)(F)F)cc4)cn3c2=O)o1 [compound 25, 2-((5-methyloxazol-2-yl)methyl)-6-(4-(trifluoromethoxy)phenyl)-[1,2,4]triazolo[4,3-a]pyridin-3(2H)-one] | 30.3 | –
O=c1n(Cc2cc(-c3ccccn3)on2)nc2ccc(-c3ccc(OC(F)(F)F)cc3)cn12 [compound 144, 2-((5-(pyridin-2-yl)isoxazol-3-yl)methyl)-6-(4-(trifluoromethoxy)phenyl)-[1,2,4]triazolo[4,3-a]pyridin-3(2H)-one] | 19.2 | –
Cc1nc(Cn2nc3ccc(-c4ccc(Oc5ccc(F)cc5)cc4)cn3c2=O)no1 [compound 140, 6-(4-(4-fluorophenoxy)phenyl)-2-((5-methyl-1,2,4-oxadiazol-3-yl)methyl)-[1,2,4]triazolo[4,3-a]pyridin-3(2H)-one] | 60.6 | –

Source: patent publication US9079901B2, “Fused heterocyclic compounds as ion channel modulators” (Gilead Sciences, Inc., priority 2010, dated 2015)
